In ChEMBL document CHEMBL1126458, “Structurally novel antiarrhythmic / antioxidant quinazolines” (Bioorg Med Chem Lett, 1992):
Values after ≈ are worked out from the molar mass of the structure shown.

Tests used:
Oryctolagus cuniculus = organism: Oryctolagus cuniculus; assay: In vitro inhibition of iron-dependent peroxidation of rabbit brain vesicular membrane lipids; format: functional
[1] = Oxidation potential as carbon paste disc electrode against a Ag/AgCl reference electrode
Homo sapiens [2] = organism: Homo sapiens; assay: Inhibition of C5a-induced luminol dependent chemiluminescence of human neutrophils; format: functional
Canis familiaris [3] = organism: Canis familiaris; assay: Action potential duration at 95% of repolarization was determined at 10 uM concentration on Isolated Canine Purkinje Fibers; format: functional, Canis lupus familiaris, Purkinje fiber
Canis familiaris [4] = organism: Canis familiaris; assay: Action potential amplitude at 10 uM concentration on Isolated Canine Purkinje Fibers was determined; format: functional, Canis lupus familiaris, Purkinje fiber
Canis familiaris [5] = organism: Canis familiaris; assay: Action potential duration at 50% of repolarization was determined at 10 uM concentration on Isolated Canine Purkinje Fibers; format: functional, Canis lupus familiaris, Purkinje fiber
Canis familiaris [6] = organism: Canis familiaris; assay: Maximal rate of depolarization at 10 uM concentration on Isolated Canine Purkinje Fibers; format: functional; conditions: Canis lupus familiaris, Purkinje fiber
Canis familiaris [7] = organism: Canis familiaris; assay: Compound was evaluated for conduction time from stimulating to intracellular recording electrode at 10 uM concentration on Isolated Canine Purkinje Fibers; format: functional, Canis lupus familiaris, Purkinje fiber
Canis familiaris [8] = organism: Canis familiaris; assay: Resting potential on Isolated Canine Purkinje Fibers at 10 uM concentration; format: functional, Canis lupus familiaris, Purkinje fiber
Homo sapiens [9] = organism: Homo sapiens; assay: Inhibition of C5a-induced luminol dependent chemiluminescence of human neutrophils; NA - compound found inactive at 10 uM; format: functional
Homo sapiens [10] = organism: Homo sapiens; assay: Inhibition of C5a-induced luminol dependent chemiluminescence of human neutrophils; NS - Not sufficiently soluble in saline for testing; format: functional
Canis familiaris [11] = organism: Canis familiaris; assay: Maximal rate of depolarization at 100 uM concentration on Isolated Canine Purkinje Fibers; format: functional; conditions: Canis lupus familiaris, Purkinje fiber
Canis familiaris [12] = organism: Canis familiaris; assay: Compound was evaluated for conduction time from stimulating to intracellular recording electrode at 100 uM concentration on Isolated Canine Purkinje Fibers; format: functional, Canis lupus familiaris, Purkinje fiber
Canis familiaris [13] = organism: Canis familiaris; assay: Action potential duration at 50% of repolarization was determined at 100 uM concentration on Isolated Canine Purkinje Fibers; format: functional, Canis lupus familiaris, Purkinje fiber
[14] = Plasma concentration in dogs when measured 1 and 5 hours following initiation of reperfusion at 30 min; format: ADME, organism-based, Canis lupus familiaris; conditions: dog
Canis familiaris [15] = organism: Canis familiaris; assay: Resting potential on Isolated Canine Purkinje Fibers at 100 uM concentration; format: functional, Canis lupus familiaris, Purkinje fiber
[16] = Plasma concentration in dogs when measured 1 and 5 hours following initiation of reperfusion at 60 min; format: ADME, organism-based, Canis lupus familiaris; conditions: dog
Canis familiaris [17] = organism: Canis familiaris; assay: Action potential amplitude at 100 uM concentration on Isolated Canine Purkinje Fibers was determined; format: functional, Canis lupus familiaris, Purkinje fiber
[18] = Plasma concentration in dogs when measured 1 and 5 hours following initiation of reperfusion at 300 min; format: ADME, organism-based, Canis lupus familiaris; conditions: dog

Row | MIC (Oryctolagus cuniculus) [µM] | E1/2 [1] [mV] | EC50 (Homo sapiens [2]) [nM] | Structure (SMILES) | APD95 (Canis familiaris [3]) [ms] | APA (Canis familiaris [4]) [mV] | APD50 (Canis familiaris [5]) [ms] | Vmax (Canis familiaris [6]) [V s-1] | CT (Canis familiaris [7]) [ms] | RP (Canis familiaris [8]) [mV] | also measured
1 | > 100 | – | – | CCN(CC)c1nc(NCCNC(=O)c2cc(OC)c(OC)c(OC)c2)c2ccccc2n1.CS(=O)(=O)O | – | – | – | – | – | – | EC50 (Homo sapiens [9]): Not Active
2 | > 100 | 440 | – | CCN(CC)c1nc(NCCNC(=O)c2cc(O)c(OC)c(OC)c2)c2ccccc2n1.CS(=O)(=O)O | – | – | – | – | – | – | EC50 (Homo sapiens [10]): Not Active
3 | – | > 600 | – | CCN(CC)c1nc(NCCNC(=O)c2cc(OC)c(OC)c(OC)c2)c2ccccc2n1 [listing 2 of 2 here] | – | – | – | -40 | – | – | –
4 | 10 (≈ 4.25 µg/mL) | 130 | 900 | CCN(CC)c1nc(NCCNC(=O)c2cc(O)c(O)c(OC)c2)c2ccccc2n1 | – | – | – | – | – | – | –

The remaining lines, values behind:

Row | Structure (SMILES) | MIC (Oryctolagus cuniculus) [µM] | E1/2 [1] [mV] | EC50 (Homo sapiens [2]) [nM] | APD95 (Canis familiaris [3]) [ms] | APA (Canis familiaris [4]) [mV] | APD50 (Canis familiaris [5]) [ms] | Vmax (Canis familiaris [6]) [V s-1] | CT (Canis familiaris [7]) [ms] | RP (Canis familiaris [8]) [mV] | also measured
5 | CCN(CC)c1nc(NCCNC(=O)c2cc(O)c(OC)c(O)c2)c2ccccc2n1 | > 100 | 320 | 9500 | – | – | – | – | – | – | –
6 | CCN(CC)c1nc(NCCNC(=O)c2ccc(OC)cc2)c2ccccc2n1.O=C(O)C(=O)O | – | – | – | -5 | -11 | -35 | -30 | 17 | -6 | –
7 | CCN(CC)c1nc(NCCNC(=O)c2ccc(F)cc2)c2ccccc2n1.O=C(O)C(=O)O | – | – | – | 1 | -15 | -48 | -54 | 72 | -3 | –
8 | CCN(CC)c1nc(NCCNC(=O)c2ccccc2)c2ccccc2n1.O=C(O)C(=O)O | – | – | – | -2 | -15 | -34 | -43 | 119 | -3 | –
9 | CCN(CC)c1nc(NCCNC(=O)c2ccccc2OC)c2ccccc2n1 | – | – | – | 15 | -31 | -24 | -71 | 71 | -15 | –
10 | CCN(CC)c1nc(NCCNC(=O)c2cc(OC)c(OC)c(OC)c2)c2ccccc2n1 [listing 1 of 2 here] | – | – | – | -24 | -14.4 | -46 | – | 123 | -4 | –
11 | CCN(CC)c1nc(NCCNC(=O)c2cc(OC)c(O)c(OC)c2)c2ccccc2n1 | > 100 | 340 | 3300 | – | – | – | – | – | – | –
12 | CCN(CC)c1nc(NCCNC(=O)c2cc(O)c(O)c(O)c2)c2ccccc2n1.CS(=O)(=O)O | 3 | 15 | 300 | 1 | 0 | -1 | -2 | 7 | 0 | Vmax (Canis familiaris [11]): -32 V s-1; APA (Canis familiaris [12]): -9 mV; CT (Canis familiaris [12]): 11 ms; APD95 (Canis familiaris [13]): 11 ms; concentration at 30 min [14]: 240 ng/mL; RP (Canis familiaris [15]): -4 mV; concentration at 60 min [16]: 1700 ng/mL; APD50 (Canis familiaris [17]): -13 ms; concentration at 5 h [18]: 1300 ng/mL
13 | CCN(CC)c1nc(NCCNC(=O)c2ccc(C(F)(F)F)cc2)c2ccccc2n1.O=C(O)C(=O)O | – | – | – | 2 | -23 | -24 | -62 | 79 | -7 | –
